Assay results published in US9493411B2 (AbbVie Inc., priority 2013, dated 2016).

Assays:
[1] = molecular target: T1, BRD4 (BDI_K57-E168) (Homo sapiens, UniProt O60885); experiment: TR-FRET bromodomain binding assay, BRD4 first bromodomain; settings: His-tagged BD1, Alexa647-labeled probe 100 nM; Ki calculated from IC50
T1 construct: BD1: amino acids K57-E168; made in house
Method: (§1) A time-resolved fluorescence resonance energy transfer (TR-FRET) assay was used to determine the affinities of compounds of the Examples listed in Table 1 for each bromodomain of BRD4. His-tagged first (BD1: amino acids K57-E168) and second (BD2: amino acids E352-E168) bromodomains of BRD4 were expressed and purified. An Alexa647-labeled BET-inhibitor was used as the fluorescent probe in the assay.
(§2) Compound dilution series were prepared in DMSO via a 3-fold serial dilution from 2.5 mM to 42 nM. Compounds were then diluted 6:100 in assay buffer (20 mM Sodium Phosphate, pH 6.0, 50 mM NaCl, 1 mM Ethylenediaminetetraacetic acid disodium salt dihydrate, 0.01% Triton X-100, 1 mM DL-Dithiothreitol) to yield 3× working solutions. Six microliters (μL) of the working solution was then transferred to white, low-volume assay plates (Costar #3673). A 1.5× assay mixture containing His-tagged bromodomain, Europium-conjugated anti-His antibody (Invitrogen PV5596) and the Alexa-647-conjugated probe molecule was also prepared. Twelve μL of this solution were added to the assay plate to reach a final volume of 18 μL. The final concentration of 1× assay buffer contains 2% DMSO, 50 μM-0.85 nM compound, 8 nM His-tagged bromodomain, 1 nM Europium-conjugated anti-His-tag antibody and 100 nM or 30 nM probe (for BDI or BDII, respectively). After a one-hour incubation at room temperature, TR-FRET ratios were determined using an Envision multilabel plate reader (Ex 340, Em […]).
(§3) TR-FRET data were normalized to the means of 24 no-compound controls (“high”) and 8 controls containing 1 μM un-labeled probe (“low”). Percent inhibition was plotted as a function of compound concentration and the data were fit with the 4 parameter logistic equation to obtain IC50s. Inhibition constants (Ki) were calculated from the IC50s, probe Kd and probe concentration. Typical Z′ values were between 0.65 and 0.75. The minimum significant ratio was determined to evaluate assay reproducibility (Eastwood et al., (2006) J Biomol Screen, 11: 253-261). The MSR was determined to be 2.03 for BDI and 1.93 for BDII, and a moving MSR (last six run MSR overtime) for both BDI and BDII was typically <3.

[2] = molecular target: T2, BRD4 (BDII_E352-M457) (Homo sapiens, UniProt O60885); experiment: TR-FRET bromodomain binding assay, BRD4 second bromodomain; settings: His-tagged BD2, Alexa647-labeled probe 30 nM; Ki calculated from IC50
T2 construct: made in house
Method: as §1, §2, §3

Compound | Ki [1] [µM] | Ki [2] [µM]
Cc1[nH]c(-c2ccccc2NCc2cc(C(F)(F)F)cc(C(F)(F)F)c2)cc1C(N)=O [Example 21, 5-(2-{[3,5-bis(trifluoromethyl)benzyl]amino}phenyl)-2-methyl-1H-pyrrole-3-carboxamide] | 9.69 | 21.5
Cc1[nH]c(-c2ccc(-c3cnn(Cc4ccccc4)c3)cc2)cc1C(N)=O [Example 111, 5-[4-(1-benzyl-1H-pyrazol-4-yl)phenyl]-2-methyl-1H-pyrrole-3-carboxamide] | 6.9 | 5.74
Cc1[nH]c(-c2ccccc2NC2CCCCCC2)cc1C(N)=O [Example 73, 5-[2-(cycloheptylamino)phenyl]-2-methyl-1H-pyrrole-3-carboxamide] | 0.862 | 3.83
Cc1[nH]c(-c2ccc(-c3ccsc3)cc2)cc1C(N)=O [Example 101, 2-methyl-5-[4-(thiophen-3-yl)phenyl]-1H-pyrrole-3-carboxamide] | 7.37 | 5.33
COc1ccc(CNc2ccccc2-c2cc(C(N)=O)c(C)[nH]2)cc1 [Example 30, 5-{2-[(4-methoxybenzyl)amino]phenyl}-2-methyl-1H-pyrrole-3-carboxamide] | 3.06 | 3.48
Cc1[nH]c(-c2ccccc2NCc2ccc(F)cc2)cc1C(N)=O [Example 23, 5-{2-[(4-fluorobenzyl)amino]phenyl}-2-methyl-1H-pyrrole-3-carboxamide] | 3.52 | 3.53
Cc1[nH]c(-c2ccccc2NC2CCNCC2)cc1C(N)=O [Example 65, 2-methyl-5-[2-(piperidin-4-ylamino)phenyl]-1H-pyrrole-3-carboxamide] | 0.634 | 12.2
COc1cc(-c2ccc(-c3cc(C(N)=O)c(C)[nH]3)cc2)cc(OC)c1OC [Example 99, 2-methyl-5-(3′,4′,5′-trimethoxybiphenyl-4-yl)-1H-pyrrole-3-carboxamide] | 2.3 | 2.32
Cc1[nH]c(-c2ccccc2NC2CCc3ccccc3C2)cc1C(N)=O (stereo not shown) [Example 74, 2-methyl-5-[2-(1,2,3,4-tetrahydronaphthalen-2-ylamino)phenyl]-1H-pyrrole-3-carboxamide] | 0.526 | 1.65
Cc1[nH]c(-c2ccccc2NC2CCC2)cc1C(N)=O [Example 66, 5-[2-(cyclobutylamino)phenyl]-2-methyl-1H-pyrrole-3-carboxamide] | 1.76 | 6.15
Cc1[nH]c(-c2ccccc2NCc2ccc(C#N)cc2)cc1C(N)=O [Example 31, 5-{2-[(4-cyanobenzyl)amino]phenyl}-2-methyl-1H-pyrrole-3-carboxamide] | 1.4 | 6.23
CC(=O)c1ccccc1-c1cccc(-c2cc(C(N)=O)c(C)[nH]2)c1 [Example 153, 5-(2′-acetylbiphenyl-3-yl)-2-methyl-1H-pyrrole-3-carboxamide] | 2.22 | 7.32
Cc1[nH]c(-c2ccccc2Oc2ccccc2)cc1C(N)=O [Example 89, 2-methyl-5-(2-phenoxyphenyl)-1H-pyrrole-3-carboxamide] | 0.122 | 0.351
Cc1[nH]c(-c2ccc(-c3cccc(N4CCOCC4)c3)cc2)cc1C(N)=O [Example 105, 2-methyl-5-[3′-(morpholin-4-yl)biphenyl-4-yl]-1H-pyrrole-3-carboxamide] | 6.78 | 5.34
Cc1[nH]c(-c2cccc3cc[nH]c23)cc1C(N)=O [Example 164, 5-(1H-indol-7-yl)-2-methyl-1H-pyrrole-3-carboxamide] | 1 | 2.03
Cc1ccc(CNc2ccccc2-c2cc(C(N)=O)c(C)[nH]2)cc1 [Example 29, 2-methyl-5-{2-[(4-methylbenzyl)amino]phenyl}-1H-pyrrole-3-carboxamide] | 2.77 | 4.41
Cc1[nH]c(-c2ccc(-c3cccc(C(=O)NCc4ccco4)c3)cc2)cc1C(N)=O [Example 106, 5-{3′-[(furan-2-ylmethyl)carbamoyl]biphenyl-4-yl}-2-methyl-1H-pyrrole-3-carboxamide] | 6.01 | 4.87
CCc1ccc(Oc2ccccc2-c2cc(C(N)=O)c(C)[nH]2)cc1 [Example 143, 5-[2-(4-ethylphenoxy)phenyl]-2-methyl-1H-pyrrole-3-carboxamide] | 0.259 | 2.11

Compound | Ki [1] [µM] | Ki [2] [µM]
Cc1[nH]c(-c2ccccc2NCc2ccc(Cl)c(Cl)c2)cc1C(N)=O [Example 33, 5-{2-[(3,4-dichlorobenzyl)amino]phenyl}-2-methyl-1H-pyrrole-3-carboxamide] | 9.63 | 13.1
Cc1[nH]c(-c2ccccc2NCc2ccc(CO)o2)cc1C(N)=O [Example 55, 5-[2-({[5-(hydroxymethyl)furan-2-yl]methyl}amino)phenyl]-2-methyl-1H-pyrrole-3-carboxamide] | 0.722 | 4.94
Cc1[nH]c(-c2ccc(-c3ccc(C(=O)N4CCN(C)CC4)cc3)cc2)cc1C(N)=O [Example 114, 2-methyl-5-{4′-[(4-methylpiperazin-1-yl)carbonyl]biphenyl-4-yl}-1H-pyrrole-3-carboxamide] | 3.96 | 3.68
Cc1[nH]c(-c2ccccc2NCc2cccc(Cl)c2)cc1C(N)=O [Example 35, 5-{2-[(3-chlorobenzyl)amino]phenyl}-2-methyl-1H-pyrrole-3-carboxamide] | 2.7 | 3.26
Cc1[nH]c(-c2ccccc2NCc2ccc(C(F)(F)F)cc2)cc1C(N)=O [Example 28, 2-methyl-5-(2-{[4-(trifluoromethyl)benzyl]amino}phenyl)-1H-pyrrole-3-carboxamide] | 9.45 | 13.6
Cc1[nH]c(-c2ccccc2NCc2cc(Br)cs2)cc1C(N)=O [Example 15, 5-(2-{[(4-bromothiophen-2-yl)methyl]amino}phenyl)-2-methyl-1H-pyrrole-3-carboxamide] | 2.58 | 2.31
CC(=O)Nc1ccc(CN(CC2CCCC2)c2ccccc2-c2cc(C(N)=O)c(C)[nH]2)cc1 [Example 59, 5-(2-{[4-(acetylamino)benzyl](cyclopentylmethyl)amino}phenyl)-2-methyl-1H-pyrrole-3-carboxamide] | 2.13 | 3.31
Cc1[nH]c(-c2ccc(-c3ccc4ncccc4c3)cc2)cc1C(N)=O [Example 113, 2-methyl-5-[4-(quinolin-6-yl)phenyl]-1H-pyrrole-3-carboxamide] | 4.64 | 4.22
Cc1[nH]c(-c2ccc([N+](=O)[O-])cc2)cc1C(N)=O [Example 7, 2-methyl-5-(4-nitrophenyl)-1H-pyrrole-3-carboxamide] | 1.63 | 6.89
Cc1[nH]c(-c2cccc(-c3ccsc3)c2)cc1C(N)=O [Example 152, 2-methyl-5-[3-(thiophen-3-yl)phenyl]-1H-pyrrole-3-carboxamide] | 4.7 | 7.87
Cc1[nH]c(-c2ccccc2NCc2ccc(N)cc2)cc1C(N)=O [Example 52, 5-{2-[(4-aminobenzyl)amino]phenyl}-2-methyl-1H-pyrrole-3-carboxamide] | 3.08 | 16.4
Cc1[nH]c(-c2ccccc2Oc2ccc(C3CCCC3)cc2)cc1C(N)=O [Example 124, 5-[2-(4-cyclopentylphenoxy)phenyl]-2-methyl-1H-pyrrole-3-carboxamide] | 4.6 | 13.1
Cc1[nH]c(-c2ccccc2NCc2cc(Cl)cc(Cl)c2)cc1C(N)=O [Example 39, 5-{2-[(3,5-dichlorobenzyl)amino]phenyl}-2-methyl-1H-pyrrole-3-carboxamide] | 3.82 | 4.98
Cc1[nH]c(-c2ccccc2NS(=O)(=O)CC(F)(F)F)cc1C(N)=O [Example 86, 2-methyl-5-(2-{[(2,2,2-trifluoroethyl)sulfonyl]amino}phenyl)-1H-pyrrole-3-carboxamide] | 3.03 | 2.6
Cc1[nH]c(-c2ccccc2Oc2ccc(Cl)cc2)cc1C(N)=O [Example 116, 5-[2-(4-chlorophenoxy)phenyl]-2-methyl-1H-pyrrole-3-carboxamide] | 0.182 | 0.639
Cc1[nH]c(-c2ccc(-c3ccncc3)cc2)cc1C(N)=O [Example 102, 2-methyl-5-[4-(pyridin-4-yl)phenyl]-1H-pyrrole-3-carboxamide] | 5.68 | 4.37
Cc1[nH]c(-c2c(N)cccc2Oc2ccccc2)cc1C(N)=O [Example 91, 5-(2-amino-6-phenoxyphenyl)-2-methyl-1H-pyrrole-3-carboxamide] | 0.331 | 3.35
